Like-named read-outs stand apart in the source and are kept apart here.

Assay [1] addresses human Fatty Acid Amide Hydrolase (FAAH) (Homo sapiens (Human), UniProt O00519). The assay is described as follows: biochemical. The following applies: for inhibition at 0.1 µM: read-out: hFAAH % inhibition at 100 nM, 100 nM (tier I).
Description: Material and Reagents: All reagents were purchased from Sigma-Aldrich unless specified. […] Chaperone protein groEL-groES in pGRO7 plasmid (Takara Bio Inc, Japan) was co-expressed with Fatty Acid Amide Hydrolase (FAAH) to improve solubility of the protein expressed in E coli. […] Briefly, the bacterial cultures in Luria Broth (2 L) were induced with arabinose (2 mM) and Isopropyl (β-D-1-thiogalactopyranoside, IPTG (1 mM), for 20 h at room temperature. The cultures were centrifuged at 1200×g for 10 min and the cell pellet was resuspended in 100 mL buffer containing of 20 mM NaPi (pH 7.4), 100 mM NaCl, Benzonase (500u), Aprotinin (1 μg/mL) and Leupeptin (1 μg/mL). Cells were lyzed by sonication (Amp 20%, Pulse 15 s×15, on ice) and the cell debris removed by centrifugation at 5000×g for 20 min. The supernatant was enriched via ultracentrifugation at 100,000×g for 1 h and the cell pellet was resuspended in 16 mL buffer containing 20 mM NaPi (pH 7.8), 500 mM NaCl, 1% Triton X-100. The resuspended cell extract was subjected to ultra-centrifugation at 100,000×g for 1 h and the enriched supernatant was used in the in vitro assay. All protein extraction steps were carried out on ice or at 4° C.
The assay was carried out in 200 μL volume in a 96-well black polystyrene plate (Greiner Bio-one, Germany). Each reaction consisted of human Fatty Acid Amide Hydrolase (FAAH) protein and 10 μM AAMCA in assay buffer containing 50 mM HEPES, 1 mM EDTA and 0.1% BSA, pH 7.4. The reaction was incubated with 2 μL of varying concentrations of inhibitor in DMSO (final concentration of DMSO 1%) with shaking for 1 min and monitored for increase in fluorescence in kinetic mode for 50 min. […] Rate of reaction as a function of the concentration of the inhibitor was used to determine the IC50 of the inhibitors. Data was analyzed using GraphPad Prism 5 (GraphPad Software Inc., San Diego, Calif.).
The target in assay [2] is rat Fatty Acid Amide Hydrolase (FAAH) (Rattus norvegicus (Rat), UniProt P97612). The assay is described as follows: FAAH in vitro fluorescence assay (AAMCA hydrolysis), rat enzyme. The class given is biochemical. The settings on record: for inhibition at 0.1 µM: read-out: rFAAH % inhibition at 100 nM, 100 nM (tier I). The essentials: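 Rat FAAH, E. coli-expressed with groEL-groES chaperone, used as enriched membrane extract with 10 μM AAMCA in 50 mM HEPES, 1 mM EDTA, 0.1% BSA, pH 7.4 (1% DMSO final).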
rat Fatty Acid Amide Hydrolase (FAAH), sequence (P97612 30-579): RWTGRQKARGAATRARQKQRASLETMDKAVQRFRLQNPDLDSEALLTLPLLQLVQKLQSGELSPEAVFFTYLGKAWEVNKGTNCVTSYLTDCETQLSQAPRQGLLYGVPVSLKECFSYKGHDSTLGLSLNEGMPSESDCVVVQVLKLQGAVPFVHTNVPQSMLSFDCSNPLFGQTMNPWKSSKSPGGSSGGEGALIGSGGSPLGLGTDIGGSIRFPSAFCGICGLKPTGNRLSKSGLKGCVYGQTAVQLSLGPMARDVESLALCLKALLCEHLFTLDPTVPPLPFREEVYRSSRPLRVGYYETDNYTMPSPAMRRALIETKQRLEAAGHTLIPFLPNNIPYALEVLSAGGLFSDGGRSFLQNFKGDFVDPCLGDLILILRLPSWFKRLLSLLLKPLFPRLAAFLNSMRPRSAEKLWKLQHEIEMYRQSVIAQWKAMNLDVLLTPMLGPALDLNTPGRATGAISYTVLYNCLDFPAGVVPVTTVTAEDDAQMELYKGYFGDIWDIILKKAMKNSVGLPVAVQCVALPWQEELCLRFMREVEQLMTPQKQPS

The mark [3] stands for this setting: human FAAH, read-out: hFAAH IC50.

human Fatty Acid Amide Hydrolase (FAAH), sequence (O00519 30-579): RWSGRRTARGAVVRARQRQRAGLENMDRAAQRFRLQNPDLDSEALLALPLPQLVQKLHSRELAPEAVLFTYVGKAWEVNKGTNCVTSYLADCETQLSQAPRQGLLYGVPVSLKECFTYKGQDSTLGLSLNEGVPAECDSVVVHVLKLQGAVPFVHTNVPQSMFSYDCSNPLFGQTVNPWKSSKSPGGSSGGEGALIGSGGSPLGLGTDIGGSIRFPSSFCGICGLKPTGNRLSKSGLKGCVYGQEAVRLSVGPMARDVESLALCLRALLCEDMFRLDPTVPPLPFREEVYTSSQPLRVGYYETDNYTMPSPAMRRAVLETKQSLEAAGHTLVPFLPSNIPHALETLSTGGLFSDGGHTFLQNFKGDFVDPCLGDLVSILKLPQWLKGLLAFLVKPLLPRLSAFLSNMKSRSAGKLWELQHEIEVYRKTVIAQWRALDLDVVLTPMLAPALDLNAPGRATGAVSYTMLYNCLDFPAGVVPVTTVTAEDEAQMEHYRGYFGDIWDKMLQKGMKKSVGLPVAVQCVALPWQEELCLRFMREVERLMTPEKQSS

For `Cc1cc(C(=O)NC2CCC(=Cc3cccc(Oc4ccc(Cl)c(C)n4)c3)CC2)cnc1N` (centres unmarked) [Example 2.E-25, 6-Amino-N-[4-[[3-[(5-chloro-6-methyl-2-pyridyl)oxy]phenyl]methylene]cyclohexyl]-5-methyl-pyridine-3-carboxamide], the IC50 in assay [1] (setting [3]) was found to be 7 nM; in assay [2] (rat FAAH, read-out: rFAAH IC50) it was 32 nM.
Consider `Cc1nc(Oc2cccc(C=C3CCC(NC(=O)c4cnc(N)nc4)CC3)c2)ccc1Cl` (centres unmarked) [Example 2.E-27, 2-Amino-N-[4-[[3-[(5-chloro-6-methyl-2-pyridyl)oxy]phenyl]methylene]cyclohexyl]pyrimidine-5-carboxamide], for which the IC50 was 1 nM in assay [1] (setting [3]) and 17 nM in assay [2] (rat FAAH, read-out: rFAAH IC50).
In the same order, the values of `N#Cc1nc(Oc2cccc(C=C3CCC(NC(=O)c4ccc(N)nc4)CC3)c2)ccc1C(F)(F)F` (centres unmarked) [Example 2.E-28, 6-Amino-N-[4-[[3-[[6-cyano-5-(trifluoromethyl)-2-pyridyl]oxy]phenyl]methylene]cyclohexyl]pyridine-3-carboxamide] are 6 nM and 75 nM.
`Nc1ncc(C(=O)NC2CCC(=Cc3cccc(Oc4ccc(C(F)(F)F)cn4)c3)CC2)cc1Cl` (centres unmarked) [Example 4.A-3, 6-Amino-5-chloro-N-[4-[[3-[[5-(trifluoromethyl)-2-pyridyl]oxy]phenyl]methylene]cyclohexyl]pyridine-3-carboxamide]: the results for the IC50 in assay [1] (hFAAH IC50) and in assay [2] were 3 nM and 16 nM, respectively.
`CN(C)c1ccc(C(=O)NC2CCC(=Cc3cccc(Oc4ccc(C(F)(F)F)cn4)c3)CC2)cn1` (centres unmarked) [Example 5.1, 6-(Dimethylamino)-N-[4-[[3-[[5-(trifluoromethyl)-2-pyridyl]oxy]-phenyl]methylene]cyclohexyl]pyridine-3-carboxamide]: the IC50 in assay [1] (read-out: hFAAH IC50) came to 7 nM; in assay [2] (rat FAAH, read-out: rFAAH IC50) it was 13 nM.
In the same order, the values of `CNc1ccc(C(=O)NC2CCC(=Cc3cccc(Oc4ccc(C(F)(F)F)cn4)c3)CC2)cn1` (centres unmarked) [Example 5.A-1, 6-(Methylamino)-N-[4-[[3-[[5-(trifluoromethyl)-2-pyridyl]oxy]phenyl]methylene]cyclohexyl]pyridine-3-carboxamide] are 4 nM and 11 nM.
Regarding `O=C(NC1CCC(=Cc2cccc(Oc3ccc(C(F)(F)F)cn3)c2)CC1)c1ccc(N2CCCC2)nc1` (centres unmarked) [Example 5.A-2, 6-Pyrrolidin-1-yl-N-[4-[[3-[[5-(trifluoromethyl)-2-pyridyl]oxy]phenyl]methylene]cyclohexyl]pyridine-3-carboxamide], the inhibition at 0.1 µM in assay [1] (human FAAH) stood at 54%. Further, the IC50 in assay [2] (rat FAAH, read-out: rFAAH IC50) was found to be 28 nM.
As to `O=C(NC1CCC(=Cc2cccc(Oc3ccc(C(F)(F)F)cn3)c2)CC1)c1ccc(-n2cccn2)nc1` (centres unmarked) [Example 5.A-6, 6-Pyrazol-1-yl-N-[4-[[3-[[5-(trifluoromemyl)-2-pyridyl]oxy]phenyl]methylene]cyclohexyl]pyridine-3-carboxamide], the IC50 in assay [1] (read-out: hFAAH IC50) amounted to 7 nM; in assay [2] (rat FAAH, read-out: rFAAH IC50), 7 nM.
As to `CCN(C)c1ccc(C(=O)NC2CCC(=Cc3cccc(Oc4ccc(C(F)(F)F)cn4)c3)CC2)cn1` (centres unmarked) [Example 5.A-7, 6-[Ethyl(methyl)amino]-N-[4-[[3-[[5-(trifluoromethyl)-2-pyridyl]oxy]phenyl]methylene]cyclohexyl]pyridine-3-carboxamide], the IC50 in assay [1] (setting [3]) came out at 128 nM; in assay [2] (rat FAAH, read-out: rFAAH IC50), 15 nM.
For `CC(CO)Nc1ccc(C(=O)NC2CCC(=Cc3cccc(Oc4ccc(C(F)(F)F)cn4)c3)CC2)cn1` (centres unmarked) [Example 5.A-8, 6-[(2-Hydroxy-1-methyl-ethyl)amino]-N-[4-[[3-[[5-(trifluoromethyl)-2-pyridyl]oxy]phenyl]methylene]cyclohexyl]pyridine-3-carboxamide], the IC50 in assay [1] (setting [3]) amounted to 16 nM; in assay [2] (rat FAAH, read-out: rFAAH IC50) it was 32 nM.
`O=C(NC1CCC(=Cc2cccc(Oc3ccc(C(F)(F)F)cn3)c2)CC1)c1ccc(NC2CC2)nc1` (centres unmarked) [Example 5.A-10, 6-(Cyclopropylamino)-N-[4-[[3-[[5-(trifluoromethyl)-2-pyridyl]oxy]phenyl]methylene]cyclohexyl]pyridine-3-carboxamide]: the IC50 in assay [1] (setting [3]) stood at 25 nM; in assay [2] (rat FAAH, read-out: rFAAH IC50), 74 nM.
Take `CCOc1ccc(C(=O)NC2CCC(=Cc3cccc(Oc4ccc(C(F)(F)F)cn4)c3)CC2)cn1` (centres unmarked) [Example 6.1, 6-Ethoxy-N-[4-[[3-[[5-(trifluoromethyl)-2-pyridyl]oxy]phenyl]-methylene]cyclohexyl]pyridine-3-carboxamide]: the IC50 in assay [1] (setting [3]) came out at 10 nM; in assay [2] (rat FAAH, read-out: rFAAH IC50), 8 nM.
As to `O=C(O)Cn1cc(-c2ccc(C(=O)NC3CCC(=Cc4cccc(Oc5ccc(C(F)(F)F)cn5)c4)CC3)cn2)cn1` (centres unmarked) [Example 8.A-1, 2-[4-[5-[[4-[[3-[[5-(Trifluoromethyl)-2-pyridyl]oxy]phenyl]methylene]cyclohexyl]carbamoyl]-2-pyridyl]pyrazol-1-yl]acetic acid], the inhibition at 0.1 µM is 72% in assay [1] (human FAAH) and 15% in assay [2] (rat FAAH).
Compound `O=C(O)c1cnn(-c2ccc(C(=O)NC3CCC(=Cc4cccc(Oc5ccc(C(F)(F)F)cn5)c4)CC3)cn2)c1` (centres unmarked) [Example 8.A-4, 1-[5-[[4-[[3-[[5-(Trifluoromethyl)-2-pyridyl]oxy]phenyl]methylene]cyclohexyl]carbamoyl]-2-pyridyl]pyrazole-4-carboxylic acid] had an IC50 in assay [1] (hFAAH IC50) of 27 nM. Further, the inhibition at 0.1 µM in assay [2] (rat FAAH) stood at 15%.
For `Nc1cc(C(=O)NC2CCC(=Cc3cccc(Oc4ccc(C(F)(F)F)cn4)c3)CC2)cnc1Cl` (centres unmarked) [Example 10.1, 5-Amino-6-chloro-N-[4-[[3-[[5-(trifluoromethyl)-2-pyridyl]oxy]-phenyl]methylene]cyclohexyl]pyridine-3-carboxamide], the values for the IC50 in assay [1] (hFAAH IC50) and in assay [2] were 1 nM and 6 nM, respectively.
As for `O=C(NC1CCC(=Cc2cccc(Oc3ccc(C(F)(F)F)cn3)c2)CC1)c1ccc(-c2nnn[nH]2)nc1` (centres unmarked) [Example 11.1, 6-(1H-Tetrazol-5-yl)-N-[4-[[3-[[5-(trifluoromethyl)-2-pyridyl]oxy]-phenyl]methylene]cyclohexyl]pyridine-3-carboxamide], in assay [1] (read-out: hFAAH IC50), the IC50 amounted to 12 nM. Moreover, the inhibition at 0.1 µM in assay [2] (rat FAAH) was found to be 50%.

As usually defined, the IC50 is the midpoint of a concentration-inhibition curve. For orientation: inhibition means the percentage by which the read-out fell short of the control.

Values taken from US9682953B2, “Amide compounds, compositions and applications thereof” (Advinus Therapeutics Limited, priority 2011, dated 2017).
